Values after ≈ are worked out from the molar mass of the structure shown. Structures can show the parent of a compound that is named as a salt. Where two headings read alike, the source gives them in different places.
Tests used:
[1] = system: S. Aureus HH 127; assay: MIC in vitro, S. Aureus HH 127 (G+); assay type: cell-based; settings: Staphylococcus aureus
[2] = system: S. Aureus SK 23390; assay: MIC in vitro, S. Aureus SK 23390 (G+); assay type: cell-based; settings: Staphylococcus aureus
[3] = system: S. villaluz SK 70390; assay: MIC in vitro, S. villaluz SK 70390 (G+); assay type: cell-based
[4] = system: Strep. Faecalis HH 34358; assay: MIC in vitro, Strep. Faecalis HH 34358 (G+); assay type: cell-based; settings: Enterococcus faecalis
[5] = system: E. coli SK 12140; assay: MIC in vitro, E. coli SK 12140 (G-); assay type: cell-based; settings: Escherichia coli, SK12140
[6] = system: E. coli HH 33779; assay: MIC in vitro, E. coli HH 33779 (G-); assay type: cell-based; settings: Escherichia coli, HH33779
[7] = system: Kleb. pneumoniae SK 2400; assay: MIC in vitro, Kleb. pneumoniae SK 2400 (G-); assay type: cell-based; settings: Klebsiella pneumoniae, SK2400
[8] = system: Kleb. pneumoniae SK 1200; assay: MIC in vitro, Kleb. pneumoniae SK 1200 (G-); assay type: cell-based; settings: Klebsiella pneumoniae, SK1200
[9] = system: Salmonella ATCC 12176; assay: MIC in vitro, Salmonella ATCC 12176 (G-); assay type: cell-based; settings: ATCC12176
[10] = system: Pseudo Aeruginosa HH 63; assay: MIC in vitro, Pseudo Aeruginosa HH 63 (G-); assay type: cell-based
[11] = system: Serratia Marcescens ATCC 13880; assay: MIC in vitro, Serratia Marcescens ATCC 13880 (G-); assay type: cell-based; settings: ATCC13880
[12] = system: Proteus morgani 179; assay: MIC in vitro, Proteus morgani 179 (G-); assay type: cell-based
[13] = system: Entero. aerogenes ATCC 13048; assay: MIC in vitro, Entero. aerogenes ATCC 13048 (G-); assay type: cell-based; settings: Klebsiella aerogenes, ATCC13048
[14] = system: Entero. cloacae HH 31254; assay: MIC in vitro, Entero. cloacae HH 31254 (G-); assay type: cell-based; settings: Enterobacter cloacae, HH31254
[15] = system: P. Mirabils PM 444; assay: MIC in vitro, P. Mirabils PM 444 (G-); assay type: cell-based
[16] = system: E. coli 12140; assay: mouse protection against E. coli 12140; assay type: in vivo; settings: Escherichia coli, sc, S.C.
From the text: For comparison with known used compounds, data for cefuroxime, cefazolin and cephalothin are included.

[17] = in vitro, G+, S. Aureus HH 127, read-out: MIC
[18] = in vitro, G+, S. Aureus SK 23390, read-out: MIC
[19] = in vitro, G+, S. villaluz SK 70390, read-out: MIC
[20] = in vitro, G+, Strep. Faecalis HH 34358, read-out: MIC
[21] = in vitro, G-, Kleb. pneumoniae SK 2400, read-out: MIC
[22] = in vitro, G-, Kleb. pneumoniae SK 1200, read-out: MIC
[23] = in vitro, G-, Salmonella ATCC 12176, read-out: MIC
[24] = in vitro, G-, Proteus morgani 179, read-out: MIC
[25] = in vitro, G-, Entero. aerogenes ATCC 13048, read-out: MIC
[26] = in vitro, G-, Entero. cloacae HH 31254, read-out: MIC

SMILES	MIC [1, 17]	MIC [2, 18]	MIC [3, 19]	MIC [4, 20]	MIC [5]	MIC [7, 21]	MIC [8, 22]	MIC [9, 23]	MIC [12, 24]	MIC [13, 25]	MIC [14, 26]	MIC [15]	ED50 [16]	MIC [1]	MIC [2]	MIC [6]	MIC [7]	MIC [8]	MIC [10]	MIC ([11]; Serratia marcescens)	also measured
Cc1nnc(SCC2=C(C(=O)O)N3C(=O)[C@@H](NC(=O)Cn4cnnn4)[C@H]3SC2)s1 [Cefazolin, cefazolin]	0.4 µg/mL (≈ 0.88 µM)	0.2 µg/mL (≈ 0.44 µM)	200 µg/mL (≈ 440 µM)	6.3 µg/mL (≈ 13.9 µM)	0.8 µg/mL (≈ 1.76 µM)	0.8 µg/mL (≈ 1.76 µM)	0.8 µg/mL (≈ 1.76 µM)	0.8 µg/mL (≈ 1.76 µM)	100 µg/mL (≈ 220 µM)	1.6 µg/mL (≈ 3.52 µM)	0.8 µg/mL (≈ 1.76 µM)	3.1 µg/mL (≈ 6.82 µM)	6.25 mg/kg	–	–	–	–	–	–	–	MIC ([6]; in vitro, G-, E. coli HH 33779, read-out: MIC): 0.8 µg/mL (≈ 1.76 µM); MIC ([10]; in vitro, G-, Pseudo Aeruginosa HH 63, read-out: MIC): > 200 µg/mL; MIC ([11]; in vitro, G-, Serratia Marcescens ATCC 13880, read-out: MIC): 100 µg/mL (≈ 220 µM)
CO/N=C(\C(=O)N[C@@H]1C(=O)N2C(C(=O)O)=C(COC(N)=O)CS[C@H]12)c1ccco1 [Cefuroxim, cefuroxime]	–	–	–	2.5 µg/mL (≈ 5.89 µM)	6.3 µg/mL (≈ 14.8 µM)	–	–	–	50 µg/mL (≈ 118 µM)	6.3 µg/mL (≈ 14.8 µM)	–	1.6 µg/mL (≈ 3.77 µM)	6.25 mg/kg	0.8 µg/mL (≈ 1.89 µM)	1.6 µg/mL (≈ 3.77 µM)	6.3 µg/mL (≈ 14.8 µM)	3.1 µg/mL (≈ 7.3 µM)	3.1 µg/mL (≈ 7.3 µM)	> 200 µg/mL	12.5 µg/mL (≈ 29.5 µM)	MIC [3]: > 200 µg/mL; MIC ([9]; Salmonella): 3.1 µg/mL (≈ 7.3 µM); MIC [14]: 3.1 µg/mL (≈ 7.3 µM)
CC(=O)OCC1=C(C(=O)O)N2C(=O)[C@@H](NC(=O)Cc3cccs3)[C@H]2SC1 [Cephalothin, cephalothin]	0.2 µg/mL (≈ 0.504 µM)	0.2 µg/mL (≈ 0.504 µM)	50 µg/mL (≈ 126 µM)	–	3.1 µg/mL (≈ 7.82 µM)	–	–	0.8 µg/mL (≈ 2.02 µM)	–	–	6.3 µg/mL (≈ 15.9 µM)	3.1 µg/mL (≈ 7.82 µM)	–	–	–	6.3 µg/mL (≈ 15.9 µM)	3.1 µg/mL (≈ 7.82 µM)	1.6 µg/mL (≈ 4.04 µM)	> 200 µg/mL	> 200 µg/mL	MIC [4]: 12.5 µg/mL (≈ 31.5 µM); MIC [12]: > 200 µg/mL; MIC [13]: 12.5 µg/mL (≈ 31.5 µM)
CO/N=C(\C(=O)N[C@@H]1C(=O)N2C(C(=O)O)=C(CSc3nnnn3CCC(=O)O)CS[C@H]12)c1ccco1 [Example 1, 7[Syn-2-methoxyimino-2-α-furylacetamido]-3-[1-(2-carboxyethyl)tetrazol-5-ylthiomethyl]-3-cephem-4-carboxylic acid, disodium salt]	–	–	> 200 µg/mL	–	–	0.8 µg/mL	0.8 µg/mL	0.8 µg/mL	1.6 µg/mL	–	1.6 µg/mL	0.2 µg/mL	4.4 mg/kg	3.1 µg/mL	1.6 µg/mL	3.1 µg/mL	–	–	200 µg/mL	3.1 µg/mL	MIC [4]: 50 µg/mL; MIC ([5]; in vitro, G-, E. coli SK 12140, read-out: MIC): 1.6 µg/mL; MIC [13]: 3.1 µg/mL

From patent US4278670A, “7-Alpha-oxyiminoacylcephalosporins” (SmithKline Corporation, priority 1976, dated 1981)
